{
  "source": "patent EP4653007A1",
  "about": "“NOVEL MIXTURE OF ACTIVE INGREDIENTS, COMPOSITIONS CONTAINING THEM, AND THEIR USE AGAINST ALLERGY AND/OR INFLAMMATION” (Global Pharmacies Partner S.R.L. in Forma Abbreviata G.P.P. …, priority 2024, dated 2025)",
  "key": {"RBL-2H3 cells": {"system": "RBL-2H3 cells", "experiment": "evaluation of degranulation (β-hexosaminidase release) in sensitized/stimulated RBL-2H3 cells", "format": "cell-based, rat", "conditions": "positive control 20 µM", "method": "To evaluate the efficacy of a mixture M according to the invention, the following in vitro study was conducted. The antiallergic activity of the tested sample of mixture M was evaluated by measuring its ability to prevent degranulation processes in a rat leukemia cell line (RBL-2H3), widely used as a model simulating mast cells in immunological and allergological studies.\n(§1) The RBL-2H3 cells were first sensitized and then stimulated to induce degranulation.\nThe test was conducted on RBL-2H3 cells grown in DMEM (Dulbecco's modified Eagle medium) containing 10% fetal bovine serum (FBS) and 1% antibiotics (penicillin and streptomycin) and incubated in standard culture conditions (37°C, 5% CO2). RBL-2H3 cells are widely used in allergy and immunology research, as, like mast cells, they express FCεRI and, following cross-linking between IgE bound to FCεRI and allergens, they undergo degranulation. […]\nThe medium was then recovered and separated from the cells and incubated with 4-nitrophenyl-N-acetyl-β-D-glucosamide. The reaction was stopped with carbonate buffer and the absorbance was measured by spectrophotometric reading at 405 nm. Degranulation was calculated as the percentage of β-hexosaminidase relative to non-sensitized (NS) cells as follows: Degranulation (%) = (ODX)/(ODNS)⋅100 [formula] […]"}, "TNFα": {"system": "TNFα", "experiment": "TNFα dosage by ELISA in supernatant of sensitized/stimulated RBL-2H3 cells", "format": "cell-based, rat", "conditions": "positive control 20 µM", "method": "The anti-inflammatory action was instead evaluated, always in the same cell line, by measuring the ability of the sample to inhibit the release of tumor necrosis factor alpha (TNFα).\nas §1\nThe test was conducted on RBL-2H3 cells grown in DMEM (Dulbecco's modified Eagle medium) containing 10% fetal bovine serum (FBS) and 1% antibiotics (penicillin and streptomycin) and incubated in standard culture conditions (37°C, 5% CO2). RBL-2H3 cells are widely used in allergy and immunology research, as, like mast cells, they express FCεRI and, following cross-linking between IgE bound to FCεRI and allergens, they undergo degranulation. In this way, therefore, they simulate the behavior of mast cells and basophils in their response to an immunological stimulus.\nThe supernatant recovered from the cells was also used for the dosage of TNFα performed by ELISA (Enzyme-Linked Immunosorbent Assay), a very widespread biochemical technique used for the quantification of proteins and peptides. In an ELISA assay, a specific […] for TNFα is immobilized on a solid surface (the bottom of a well) to which the assay medium is added. Detection is done by means of a biotinylated secondary antibody and then reacted with streptavidin-HRP. The colorimetric reaction is proportional to the amount of TNFα present. The results are read by spectrophotometer at 450 nm. The values obtained were then interpolated into a standard curve of TNFα.\nThe absorbance (optical density, OD) measured at 450 nm is directly proportional to the amount of TNFα produced by the tissues. To calculate the concentrations of TNFα, the OD values obtained were interpolated into a standard curve of TNFα. The percentages were calculated with respect to the non-sensitized and non-stimulated cells (NS). The values are expressed as means ± standard deviation. Statistical processing of the data was performed by Student's t-test. Values of p<0.05 are considered significant. […]"}},
  "data": [
    {"smiles": "C=C1CC[C@H]2C(=C)CC[C@H]3C(=C)C(=O)O[C@@H]3[C@@H]12", "note": "[PC, Dehydrocostolactone]", "values": [
      {"measurement": "β-hexosaminidase (% vs NS)", "setting": "RBL-2H3 cells; RBL-2H3, anti-DNP IgE / DNP-HSA", "result": 244.8, "unit": "%"},
      {"measurement": "protection (% vs NC)", "setting": "RBL-2H3 cells; reduction in degranulation", "result": 80.8, "unit": "%"},
      {"measurement": "TNFα (% vs NS)", "setting": "TNFα", "result": 183.4, "unit": "%"},
      {"measurement": "TNFα", "setting": "TNFα; RBL-2H3 supernatant", "result": 200.3, "unit": "pg/mL"},
      {"measurement": "protezione (% vs NC)", "setting": "TNFα; reduction in TNFα release", "result": 19.5, "unit": "%"}
    ]}
  ]
}
